Data set [1] relates to C6. Kind of data set: Antiproliferative activity against rat C6 cells assessed as cell viability after 24 hrs by MTT assay. The class given is functional, cell-based. To be noted: for IC50: C6, 24 h. (Formazan colour is commonly taken as a measure of viable cells.)
Data set [2] is described as follows: Solubility of the compound in water at 0.01 g after 5 mins. The class given is physicochemical.
A short description of data set [3]: Solubility of the compound in water after 5 mins. Format: physicochemical.
The test system of data set [4] is C6. The experiment in a line: Cell cycle arrest in rat C6 cells assessed as accumulation at sub G0/G1 phase at 100 uM after 24 hrs by propidium iodide staining based flow cytometric analysis (reference value: 0.6 %). The class given is functional.
For data set [5], the system named is C6. Kind of data set: Cell cycle arrest in rat C6 cells assessed as accumulation at sub G0/G1 phase at 200 uM after 24 hrs by propidium iodide staining based flow cytometric analysis (reference value: 0.6 %). The class given is functional. Background: A flow cytometer gives signals particle by particle.
Data set [6] relates to C6. Kind of data set: Cell cycle arrest in rat C6 cells assessed as accumulation at sub G0/G1 phase at 400 uM after 24 hrs by propidium iodide staining based flow cytometric analysis (reference value: 0.6 %). The class given is functional.
The subject of data set [7] is C6. Kind of data set: Induction of apoptosis in rat C6 cells assessed as DNA fragmentation at 300 uM after 24 hrs by TUNEL assay relative to control. The class given is functional, cell-based.
The subject of data set [8] is C6. Kind of data set: Induction of apoptosis in rat C6 cells assessed as decrease in Bcl2 expression at 100 to 600 uM after 24 hrs by Western blot analysis. Format: functional, cell-based.
Data set [9] relates to C6. Kind of data set: Induction of apoptosis in rat C6 cells assessed as decrease in Bclxl expression at 100 to 600 uM after 24 hrs by Western blot analysis. Format: functional, cell-based. Background: Immunoblotting shows a protein as a band on a membrane.
The test system of data set [10] is C6. Kind of data set: Induction of apoptosis in rat C6 cells assessed as decrease in pro-caspase 8 expression at 100 to 600 uM after 24 hrs by Western blot analysis. The class given is functional, cell-based.
Data set [11] deals with C6. Kind of data set: Induction of apoptosis in rat C6 cells assessed as cleaved caspase 3 at 100 to 600 uM after 24 hrs by Western blot analysis. The class given is functional, cell-based.
In data set [12] the test system is C6. The experiment in a line: Induction of apoptosis in rat C6 cells assessed as PARP cleavage at 100 to 600 uM after 24 hrs by Western blot analysis. Format: functional, cell-based.
Data set [13] has as its system C6. Kind of data set: Induction of apoptosis in rat C6 cells assessed as upregulation of p53 expression at 100 to 600 uM after 24 hrs by Western blot analysis. The class given is functional, cell-based.
The test system of data set [14] is C6. Kind of data set: Antiproliferative activity against rat C6 cells assessed as inhibition of colony forming ability at 40 uM after 7 days by methylene blue staining; values are per cent of control. To be noted: C6, 168 h.
Data set [15] deals with C6. The experiment in a line: Antiproliferative activity against rat C6 cells assessed as inhibition of colony forming ability at 120 uM after 7 days by methylene blue staining; values are per cent of control. To be noted: C6, 168 h.
Data set [16] concerns C6. The experiment in a line: Antiproliferative activity against rat C6 cells assessed as inhibition of colony forming ability at 200 uM after 7 days by methylene blue staining; values are per cent of control. To be noted: C6, 168 h.
Data set [17] deals with C6. Kind of data set: Antiproliferative activity against rat C6 cells assessed as inhibition of colony forming ability at 400 uM after 7 days by methylene blue staining; values are per cent of control. To be noted: C6, 168 h.
The subject of data set [18] is C6. The experiment in a line: Antiproliferative activity against rat C6 cells assessed as inhibition of colony forming ability at 800 uM after 7 days by methylene blue staining; values are per cent of control. To be noted: C6, 168 h.
Data set [19] deals with C6. The experiment in a line: Cell cycle arrest in rat C6 cells assessed as accumulation at G2/M phase at 40 uM after 24 hrs by propidium iodide staining based flow cytometric analysis (reference value: 20.2%). Format: functional.
The test system of data set [20] is C6. Kind of data set: Cell cycle arrest in rat C6 cells assessed as accumulation at G2/M phase at 120 uM after 24 hrs by propidium iodide staining based flow cytometric analysis (reference value: 20.2%). Format: functional.
Data set [21] deals with C6. The experiment in a line: Cell cycle arrest in rat C6 cells assessed as accumulation at G2/M phase at 200 uM after 24 hrs by propidium iodide staining based flow cytometric analysis (reference value: 20.2%). The class given is functional.
Data set [22] has as its system C6. Kind of data set: Cell cycle arrest in rat C6 cells assessed as accumulation at G2/M phase at 400 uM after 24 hrs by propidium iodide staining based flow cytometric analysis (reference value: 20.2%). Format: functional.
In data set [23] the test system is C6. Kind of data set: Antiproliferative activity against rat C6 cells assessed as inhibition of colony forming ability at 600 uM after 7 days by methylene blue staining; values are per cent of control. To be noted: C6, 168 h.

By solubility is commonly meant how much of the substance goes into solution per volume. Higher therefore signals a readily soluble substance. The term IC50 denotes the concentration at which inhibition is half-maximal.

In brackets after ≈: the same amount, converted by molar mass. Activity calls are given as the source filed them. The rule behind the calls is not given here.

For `O=C(N[C@@H](CO)C(=O)O)c1cc2c([nH]c3ccccc32)c(CCC(=O)N2CCC[C@H]2C(=O)O)n1`, the Activity entry with C6 [1] was “Dose-dependent effect”. Moreover, the solubility entry in data set [2] was “soluble”.

`O=C(O)c1cc2c([nH]c3ccccc32)c(CCC(=O)N2CCC[C@H]2C(=O)O)n1`: the Activity entry in the data set with C6 [1] was “Dose-dependent effect”. Moreover, the solubility at 5 min in [3] was 10000 µg/mL (≈ 26.2 mM).

As for `C[C@H](NC(=O)c1cc2c([nH]c3ccccc32)c(CCC(=O)N2CCC[C@H]2C(=O)O)n1)C(=O)O`, the Activity result with C6 [1] is “Dose-dependent effect”. In addition, in data set [2], the solubility result is listed as “soluble”.

On to `C[C@H](O)[C@H](NC(=O)c1cc2c([nH]c3ccccc32)c(CCC(=O)N2CCC[C@H]2C(=O)O)n1)C(=O)O`, for which the Activity entry in the data set with C6 [1] is “Dose-dependent effect”; in the data set with C6 [4], 4.7%; in the data set with C6 [5], 43.7%; in the data set on C6 [6], 95.1%. In the data set on C6 [1], the IC50 was found to be 150 µM. The result in the data set with C6 [7], in the data set with C6 [8], in the data set on C6 [9], in the data set on C6 [10], in the data set with C6 [11] and in the data set with C6 [12] was Active. Also, in the data set with C6 [13], the outcome was Active. In addition, in data set [2], the solubility result was “soluble”. Moreover, the colony formation (% of control) at 40 µM in the data set on C6 [14] is 85%. Besides, in the data set on C6 [15], the colony formation (% of control) at 120 µM is 75%. For the same compound, in the data set with C6 [16], the colony formation (% of control) at 200 µM was found to be 45%. The colony formation (% of control) at 400 µM with C6 [17] worked out at 25%. Also, in the data set on C6 [18], the colony formation (% of control) at 800 µM is 5%.

As for `CC(C)[C@H](NC(=O)c1cc2c([nH]c3ccccc32)c(CCC(=O)N2CCC[C@H]2C(=O)O)n1)C(=O)O`, the Activity entry with C6 [1] is “Dose-dependent effect”; in the data set on C6 [19] it was 24.4%; in the data set with C6 [20], 22.8%; in the data set with C6 [21] it was 18.3%; with C6 [22], 23.9%. For the same compound, the IC50 with C6 [1] was found to be 250 µM. Moreover, the solubility result in data set [2] is “soluble”. For the same compound, in the data set with C6 [16], the colony formation (% of control) at 200 µM amounted to 55%. In addition, in the data set with C6 [17], the colony formation (% of control) at 400 µM was found to be 35%. The colony formation (% of control) at 600 µM in the data set with C6 [23] was found to be 15%.

For the origin of these results see ChEMBL document CHEMBL3784926, “Concise total synthesis of water soluble metatacarboline A, C, D, E and F and its anticancer activity” (Eur J Med Chem, 2016).
